Assay results: patent publication US8653012B2, “Mutual solvent-soluble and/or alcohol blends-soluble particles for viscoelastic surfactant fluids” (Baker Hughes Incorporated, priority 2008, dated 2014)

Columns and labels:
[1] = Water solubility of dicarboxylic acid agents; format: physicochemical
From the text: (§1) Two different dicarboxylic particles were used in the Examples herein. […] LCA141 is dodecanedioic acid (DDDA) (Agent B in U.S. Pat. No. 6,994,166), also from INVISTA.

[2] = Solubility of dicarboxylic acid agents in various solvents; format: physicochemical; details: 183° F. (84° C.)
From the text: as §1

With O=C(O)CCCCCCCCCCC(=O)O [LCA141, dodecanedioic acid] the Water solubility ([1]; 70° F. (21° C.)) was “Very low (70° F. (21° C.))”, the Water solubility ([1]; 140° F. (60° C.)) was 0.012% (140° F. (60° C.)) and the Water solubility ([1]; 176° F. (80° C.)) was 0.01% (176° F. (80° C.)). For the same molecule, the Water solubility ([1]; 212° F. (100° C.)) was 0.04% (212° F. (100° C.)), the “Solubility, %” value ([2]; Blend C (50:50 v/v isopropanol and oxyalkylated alcohol mixture)) was 6.99 (183° F. (84° C.)) % and the “Solubility, %” value ([2]; Ethylene glycol monobutyl ether (EGMBE)) was 5.89 (183° F. (84° C.)) %. For the same molecule, the “Solubility, %” value ([2]; Isopropanol) was >9.73 (183° F. (84° C.)) %.
